What was measured:
[1] = Deionized water-solidifying test (base for solidifying moisture-containing compositions); format: physicochemical; conditions: 25° C.; for (Appearance) / Condition: after 20 hours from the dissolution; for Time of solidification completed / Time of solidification started: monitored for 2 hours
From the text: After completing the dissolution, each test solution was further stirred for four minutes and then the stirring was stopped. Successively, each test solution was left to stand and a solidification of the test solution by the crystallization of hydrous crystalline maltose was monitored macroscopically for two hours. In the cases of the solidified samples, the time of starting the crystallization and that of completing the solidification were checked. (However, the test solution dissolving 18.8 g of crystal was stopped stirring at three minutes after the dissolution because the crystallization of hydrous crystalline maltose was started immediately.) After monitoring macroscopically for two hours, each vessel containing any one of the sample solutions was closed and further left to stand for 18 hours. Then, the condition (appearance) of the test samples after 20 hours from the dissolution was monitored macroscopically and evaluated by the following three phases: (1) clear solution; (2) clouded solution; and (3) solidified. The samples prepared by using 10.0 g, 11.5 g, 13.3 g, or 18.8 g of the anhydrous crystalline α-maltose used in Example 2, as a substitute of the test samples, were treated by the same procedure as controls. The test was carried out in a room where a temperature was kept at 25° C. The results of each sample after 2 and 20 hours are shown in Table 5 and FIG. 13, and Table 6 and FIG. 14, respectively.

[2] = Powderizing test by admixing deionized water; format: physicochemical; conditions: 25° C., listed as Anhydrous crystalline α-maltose (Control)
Experimental: (§1) The usefulness of the crystal was judged by the amount of deionized water added to the limit of keeping the powder form. The form of the powder was evaluated by the following four phases: (1) powder; (2) lump (it keeps a powder form while it comprises lumps); (3) cake; and (4) paste. As a control, the anhydrous crystalline α-maltose used in Example 2 was treated by the same procedure. The test was carried out in a room where the temperature was kept at 25° C. The results of the test and the form of each sample after admixing with 1.25 ml of deionized water are shown in Table 7 and FIG. 15, respectively.

[3] = Powderizing test by admixing dehydrated ethanol; format: physicochemical; conditions: listed as Anhydrous crystalline α-maltose (Control)
Experimental: as §1, with “respectively. […] The results of the test and the form of each sample after admixing with 6 ml of dehydrated ethanol are shown in Table 8 and FIG. 16, respectively.” for “respectively.”

[4] = Specific surface area by nitrogen adsorption isotherms (BET); format: physicochemical; conditions: BET method, listed as anhydrous crystalline α-maltose of Control 2
Experimental: About 3 g of the anhydrous crystalline β-maltose, obtained in Example 1, was dried in the apparatus under a reduced pressure at about 40° C. for about 15 hours as a pretreatment, and then used for the measurement of specific surface area by the nitrogen adsorption isotherms. The result was analyzed by conventional BET (Brunnauer, Emmet, and Teller) method.

[5] = mercury filling method
[6] = Hygroscopicity test (moisture content under controlled relative humidity); format: physicochemical; conditions: 27° C., listed as AC α-Mal (Control 2)
Experimental: Moisture contents of the samples at respective periods were measured based on the change of weight from the start of the test. The moisture contents of the samples at the start of the test were measured by Karl Fischer's method.

[7] = 10.0 g dissolved in 10 g deionized water (50.0%)
[8] = 10.0 g dissolved in 10 g deionized water (calc. conc. 50.0%)
[9] = 11.5 g dissolved in 10 g deionized water (53.5%)
[10] = 11.5 g dissolved in 10 g deionized water (calc. conc. 53.5%)
[11] = 13.3 g dissolved in 10 g deionized water (57.0%)
[12] = 13.3 g dissolved in 10 g deionized water (calc. conc. 57.0%)
[13] = 18.8 g dissolved in 10 g deionized water (calc. conc. 65.0%)
[14] = control values originate from space between crystal particles, not pores

With OC[C@H]1O[C@H](O[C@H]2[C@H](O)[C@@H](O)[C@H](O)O[C@@H]2CO)[C@H](O)[C@@H](O)[C@@H]1O [anhydrous crystalline α-maltose] the “(Appearance)” value [1, 7] was “(Clear solution)”, the Condition [1, 7] was “Not solidified” and the “Time of solidification completed” value [1, 8] was “Not solidified”. For the same molecule, the “Time of solidification started” value [1, 8] was “Not solidified”, the “(Appearance)” value [1, 9] was “(Clear solution)” and the Condition [1, 9] was “Not solidified”. For the same molecule, the “Time of solidification completed” value [1, 10] was “Not solidified”, the “Time of solidification started” value [1, 10] was “Not solidified” and the “(Appearance)” value [1, 11] was “(Clouded solution)”. The Condition [1, 11] was “Not solidified”, the “Time of solidification completed” value [1, 12] was “Not solidified” and the “Time of solidification started” value [1, 12] was “Not solidified”. The Condition ([1]; 18.8 g dissolved in 10 g deionized water (65.0%)) was “Solidified”, the “Time of solidification completed” value [1, 13] was “Not solidified” and the “Time of solidification started” value [1, 13] was “Not solidified”. For the same molecule, the “Form of the powder after admixing deionized water” value ([2]; 10 g crystal + 0.75 ml water (moisture content 7.0%, w/w)) was “Lump form”, the “Form of the powder after admixing deionized water” value ([2]; 10 g crystal + 1.00 ml water (moisture content 9.1%, w/w)) was “Cake form” and the “Form of the powder after admixing deionized water” value ([2]; 10 g crystal + 1.25 ml water (moisture content 11.1%, w/w)) was “Paste form”. The “Form of the powder after admixing dehydrated ethanol” value ([3]; 10 g crystal + 3.5 ml ethanol (27.5 v/w %)) was “Lump form”, the “Form of the powder after admixing dehydrated ethanol” value ([3]; 10 g crystal + 4.0 ml ethanol (30.5 v/w %)) was “Cake form” and the “Form of the powder after admixing dehydrated ethanol” value ([3]; 10 g crystal + 4.5 ml ethanol (33.3 v/w %)) was “Cake form”. For the same molecule, the “Form of the powder after admixing dehydrated ethanol” value ([3]; 10 g crystal + 5.0 ml ethanol (36.0 v/w %)) was “Cake form”, the “Form of the powder after admixing dehydrated ethanol” value ([3]; 10 g crystal + 5.5 ml ethanol (38.5 v/w %)) was “Paste form” and the “Form of the powder after admixing dehydrated ethanol” value ([3]; 10 g crystal + 6.0 ml ethanol (40.9 v/w %)) was “Paste form”. The Specific surface area [4] was 0.48 m^2/g, the Intrusion volume ([5]; initial pressure 15 kPa) was “(No pore)” and the Median pore diameter [5, 14] was 13.00 μm. The Mode pore diameter [5, 14] was 20.70 μm, the “Moisture content of samples” value ([6]; RH 47% (lithium nitrate), 0 hour (start, Karl Fischer)) was 0.74 %, w/w and the “Moisture content of samples” value ([6]; RH 47% (lithium nitrate), 2 hours) was 0.70 %, w/w. For the same molecule, the “Moisture content of samples” value ([6]; RH 47% (lithium nitrate), 4 hours) was 0.70 %, w/w, the “Moisture content of samples” value ([6]; RH 47% (lithium nitrate), 24 hours) was 0.65 %, w/w and the “Moisture content of samples” value ([6]; RH 47% (lithium nitrate), 96 hours) was 0.71 %, w/w. For the same molecule, the “Moisture content of samples” value ([6]; RH 47% (lithium nitrate), 192 hours) was 0.70 %, w/w, the “Moisture content of samples” value ([6]; RH 58% (sodium bromide), 0 hour (start, Karl Fischer)) was 0.74 %, w/w and the “Moisture content of samples” value ([6]; RH 58% (sodium bromide), 2 hours) was 0.74 %, w/w. For the same molecule, the “Moisture content of samples” value ([6]; RH 58% (sodium bromide), 4 hours) was 0.76 %, w/w, the “Moisture content of samples” value ([6]; RH 58% (sodium bromide), 6 hours) was 0.80 %, w/w and the “Moisture content of samples” value ([6]; RH 58% (sodium bromide), 8 hours) was 0.79 %, w/w. The “Moisture content of samples” value ([6]; RH 58% (sodium bromide), 24 hours) was 0.83 %, w/w, the “Moisture content of samples” value ([6]; RH 58% (sodium bromide), 96 hours) was 0.98 %, w/w and the “Moisture content of samples” value ([6]; RH 58% (sodium bromide), 192 hours) was 0.91 %, w/w. For the same molecule, the “Moisture content of samples” value ([6]; RH 75% (sodium chloride), 0 hour (start, Karl Fischer)) was 0.74 %, w/w, the “Moisture content of samples” value ([6]; RH 75% (sodium chloride), 2 hours) was 1.18 %, w/w and the “Moisture content of samples” value ([6]; RH 75% (sodium chloride), 4 hours) was 2.44 %, w/w. The “Moisture content of samples” value ([6]; RH 75% (sodium chloride), 6 hours) was 2.88 %, w/w, the “Moisture content of samples” value ([6]; RH 75% (sodium chloride), 8 hours) was 3.14 %, w/w and the “Moisture content of samples” value ([6]; RH 75% (sodium chloride), 24 hours) was 3.84 %, w/w. For the same molecule, the “Moisture content of samples” value ([6]; RH 75% (sodium chloride), 96 hours) was 3.85 %, w/w, the “Moisture content of samples” value ([6]; RH 75% (sodium chloride), 192 hours) was 4.49 %, w/w and the “Moisture content of samples” value ([6]; RH 90% (barium chloride), 0 hour (start, Karl Fischer)) was 0.74 %, w/w. For the same molecule, the “Moisture content of samples” value ([6]; RH 90% (barium chloride), 2 hours) was 1.79 %, w/w, the “Moisture content of samples” value ([6]; RH 90% (barium chloride), 4 hours) was 4.30 %, w/w and the “Moisture content of samples” value ([6]; RH 90% (barium chloride), 6 hours) was 6.29 %, w/w. The “Moisture content of samples” value ([6]; RH 90% (barium chloride), 8 hours) was 7.82 %, w/w, the “Moisture content of samples” value ([6]; RH 90% (barium chloride), 24 hours) was 15.78 %, w/w and the “Moisture content of samples” value ([6]; RH 90% (barium chloride), 96 hours) was 17.77 %, w/w. For the same molecule, the “Moisture content of samples” value ([6]; RH 90% (barium chloride), 192 hours) was 14.38 %, w/w.

Reference: patent publication US8168779B2, “Anhydrous crystalline β-maltose, its preparation and uses” (priority 2006, dated 2012)
